Results on 88 molecules are retold here after a melting point compilation (Tetko et al.; mined from patent text by program, amines drawn as free bases though some values may be those of a salt).

The melting point is the temperature, or range, at which the solid turns liquid.

`Nc1ccc(C23CC(C2)C(=O)N(C2CCCCC2)C3=O)cc1` gave a melting point of 139 °C.

`CCOC(=O)c1ccc(NC(=O)NCCN2CCN=C2c2ccccn2)cc1` registered a melting point of 95 to 97 °C.

`CCN1C(=O)C(C)(C)C(=O)N(C)c2cc(CN(CCn3ccc4oc(C)cc4c3=O)Cc3cccnc3Cl)ccc21`: the melting point was in the range of 159 to 161 °C.

`CC(CS(=O)(=O)c1ccccc1)C1CCC2C3CC=C4CC(O)CCC4(C)C3CCC12C` (stereo not drawn) registered a melting point of 158 to 161 °C.

Regarding `S=c1[nH]ccn1CCc1cccs1`, the melting point was in the range of 131 to 134 °C.

The molecule `CSc1sc(-c2nccs2)c2c1-c1oncc1CC2` displayed a melting point of 165 to 168 °C.

The molecule `CCCCCCCCCC=C1OC(=O)N(CCCCSc2cccc3nccn23)C1=O` displayed a melting point of 46 to 48 °C.

The molecule `COc1ccc(-n2c3ccccc3c3cc(C(C#N)=C(C#N)c4cc(F)cc(F)c4)ccc32)cc1` showed a melting point of 140 to 142 °C.

For the molecule `COc1cc(Nc2c(C#N)cnc3cc(-c4ccc(N5CCOCC5)cc4)ccc23)c(Cl)cc1Cl`, the melting point was in the range of 162 to 164 °C.

`Nc1cc(F)ccc1C(=O)Nc1ccccc1` yielded a melting point of 120 to 122 °C.

As to `COC(=O)c1cccc(NC(=O)c2ccccc2)c1O`, the melting point stood at 105 °C.

For `c1ccc(CN2CCOC(c3ccccc3)(c3ccccc3)CC2)cc1`, the melting point fell in the range of 72 to 75 °C.

`CC(=O)OCC(C(OC(C)=O)c1cccc(F)c1)[N+](=O)[O-]` (stereo not drawn) registered a melting point of 94 °C.

Take `COc1ccc(N2CCOCC2)c2sc(NC(=O)N(C)[C@H]3CC[C@H](O)CC3)nc12`: the melting point lay in the range of 158 to 162 °C.

Regarding `O=C1C(=Cc2cccc(Cl)c2)SC(c2cccc(Cl)c2)N1CCCN1CCCCC1` (stereo not drawn), the melting point was in the range of 137 to 139 °C.

For `Nc1cc(C=O)ncc1F`, the melting point was in the range of 133 to 135 °C.

In turn, `COc1cnc(CSc2nc3cc(OC(F)F)ccc3[nH]2)c(C)c1OC` yielded a melting point of 100 to 102 °C.

In turn, `Cc1cc(SC(C)C)c(NC(=O)CCCCSc2nc3ccccc3s2)c(SC(C)C)n1` displayed a melting point of 107 to 109 °C.

Regarding `Cn1cc(-c2cccc(C(F)(F)F)c2)c(=O)c(-c2cccc(C(F)(F)F)c2)c1`, the melting point was in the range of 152 to 154 °C.

With `CCOC(=O)C(=NOC)C1=CSc2ccccc2O1`, the melting point was 78 to 80 °C.

With `CC(C)(C)C(=O)N[C@H]1CC[C@H](CCN2CCN(c3nccc4c3OCC4)CC2)CC1`, the melting point was found to be 194 °C.

`CN(CCOc1ccc(NS(C)(=O)=O)cc1)CCc1ccc(N)cc1`: the melting point lay in the range of 155 to 157 °C.

As to `O=C(Nc1n[nH]c(=S)s1)NC(Cc1ccccc1)C(=O)NCc1ccc2c(c1)OCO2` (stereo not drawn), the melting point came out at 213 °C.

Molecule `O=C(/C=C/C=C(c1cccc(F)c1)c1cccc(F)c1)NCCCCc1cccnc1` registered a melting point of 103 to 104 °C.

Molecule `CCNC(=O)c1ccc(-n2nnc(C(=O)NC3CC3)c2CCCCCF)cc1` displayed a melting point of 150 °C.

Molecule `COc1ccc(-c2c(C(N)=O)c3n(c2Cl)CCN(C(=O)NC(C)(C)C)C3)cc1` showed a melting point of 168 to 170 °C.

Regarding `COC(OC)c1cc(C)nc(NC(=O)NS(=O)(=O)c2ccccc2Cl)n1`, the melting point was in the range of 150 to 153 °C.

For `O=C(O)COc1ccc2c(-c3ccccn3)noc2c1Cl`, the melting point was in the range of 255 to 256 °C.

In the case of `C[C@H]([C@](O)(Cn1cncn1)c1ccc(F)cc1F)S(=O)(=O)N1CCN(c2ccc(F)cc2)CC1`, the melting point lay within 128 to 130 °C.

Turning to `COc1ccc(-c2c([N+](=O)[O-])cnc3ccc(Cl)cc23)cc1OC`, the melting point was in the range of 188 to 190 °C.

`OC(Cc1cnc(-c2c(F)cccc2F)nn1)c1ccc(Cl)cc1` (stereo not drawn) gave a melting point of 98 to 102 °C.

`O=C(NCCO)c1cncc(-c2cccc3cc(Cc4cc(F)cc(Cl)c4)sc23)c1` had a melting point of 126 to 127 °C.

Turning to `COc1ccc2c(Cc3c(Cl)cncc3Cl)nnc(-c3nccs3)c2c1`, the melting point lay within 225 to 230 °C.

The molecule `CCCc1c(C2=NN=C(C)Cc3cc4[nH]c(=O)oc4cc32)sc2ccccc12` registered a melting point of 307 to 308 °C.

Take `Cc1noc2cc3c(cc12)C1(CO3)C(=O)N(Cc2ccccn2)c2ccccc21` (stereo not drawn): the melting point fell in the range of 142 to 143 °C.

In turn, `O=C(O)C1=Cc2cc(Cl)ccc2N(Cc2ccc(Cl)cc2)C1C(F)(F)F` (stereo not drawn) had a melting point of 250 to 253 °C.

`Cc1cc(C)c2c(n1)CC(c1ccccc1C)CC2=O` (stereo not drawn) gave a melting point of 106 to 107 °C.

`CCCCCOC(=O)CNC(=O)c1nc(Cl)c2ccc(OC(C)C)cc2c1O` yielded a melting point of 75 to 77 °C.

As for `CC(=O)c1ccc2[nH]c(C(=O)c3ccc(Cl)cc3)c(CC(=O)O)c2c1`, the melting point stood at 225 °C.

For the molecule `Cc1cccc(NC(=O)c2ccccc2C)c1`, the melting point is 145 to 146 °C.

In turn, `CC(C)(CO)c1cc2c(cc1Cl)C=C(C(=O)O)C(C(F)(F)F)O2` (stereo not drawn) came in with a melting point of 204 to 205 °C.

On to `CCCCN(CCCC)c1nc(Nc2ccc3c(c2)C(=O)c2ccccc2C3=O)nc(N(CCCC)CCCC)n1`, for which the melting point was in the range of 140 to 145 °C.

For the molecule `Cc1ccccc1-n1ccnc1SCCCO`, the melting point lay within 47 to 48 °C.

`CCCCC(=NNC(=O)OC(C)(C)C)c1ccncc1` registered a melting point of 156 °C.

Regarding `O=C(O)c1ccc(NCCCCCCCCCCCOc2ccccc2)cc1`, the melting point fell in the range of 117 to 119 °C.

In turn, `CCOC(=O)C(=O)Nc1nc2ccccc2s1` yielded a melting point of 185 to 186 °C.

Regarding `CCOc1nc(Cl)nc(N(C)C)n1`, the melting point worked out at 124 °C.

Regarding `CCn1c(=O)c2c(-c3noc(C4CC4)n3)ncn2c2cccnc21`, the melting point was 254 to 255 °C.

Turning to `CC(C)n1nc(-c2sc(C(=O)NC3CC3)nc2-c2cccc(F)c2)ccc1=O`, the melting point lay within 146 to 147 °C.

The molecule `Cc1c(C)c2c(c(C)c1Br)OC(C)(C)C2=O` registered a melting point of 125 to 127 °C.

`Nc1ccc(O)c2c1C(=O)c1c(N)ccc(O)c1C2=O` came in with a melting point of 290 °C.

Take `CS(=O)(=O)c1ccc(-n2nc(C(F)(F)F)cc2-c2ccc(-c3ncco3)cc2)cc1`: the melting point is 190 to 192 °C.

`Cc1nc(-c2ccc(C(F)(F)F)cc2)sc1CSc1ccc(OCC(=O)O)c2c1CCCC2` came in with a melting point of 166 to 167 °C.

For the molecule `CNC(=O)N(O)CCNC(=O)c1cccc(Oc2ccccc2)c1`, the melting point fell in the range of 161 to 162 °C.

`O=c1c(CO)coc2cc(OCCCN3CCC(c4noc5cc(F)ccc45)CC3)ccc12`: the melting point fell in the range of 200 to 202 °C.

Take `C[C@@H]1CCCN1CCCN1CCN(CCN2CCCCC2)C1=C(C#N)C#N`: the melting point lay within 70 to 71 °C.

Regarding `N#CC=CNc1ccnc(-c2ccncc2)n1`, the melting point lay within 253 to 255 °C.

`CN(c1cccc2cc(C(=O)NCC3(SCc4ccccc4)CCC4(CC3)OCCO4)[nH]c12)S(=O)(=O)c1cccs1` showed a melting point of 211 to 212 °C.

`CCOC(NC(=O)c1cccc(Cl)c1)C(N)=S` (stereo not drawn) returned a melting point of 136 to 137 °C.

`CC(=O)CCCNC(=O)c1c2ccc(Cl)cc2c(-c2ccccc2)n1C` had a melting point of 128 to 131 °C.

Molecule `CCN(CC)C(=O)c1ccc(Nc2nc(OCC3CCCCC3)c3nc[nH]c3n2)cc1` showed a melting point of 138 to 140 °C.

On to `COCn1cnc(Cl)c1Cl`, for which the melting point lay within 41 to 44 °C.

In turn, `Cc1nc(N2CCN(Cc3ccc(F)cc3)C2=O)sc1C(=O)NCc1ncccn1` gave a melting point of 205 to 207 °C.

`CN1CCN(N=C2CC(c3ccc(C(F)(F)F)cc3)Cc3[nH]c4ccc(Cl)cc4c(=O)c32)CC1` (stereo not drawn): the melting point turned out to be 330 °C.

`Cc1cc(C)cc(CN(C)C2CCCn3c2c(-c2ccccc2)c2cc(C)c(C)cc2c3=O)c1` (stereo not drawn) yielded a melting point of 144 to 145 °C.

Turning to `C=CC(O)C(NC=O)C(=O)OCC` (stereo not drawn), the melting point was 50 to 51 °C.

The molecule `CCOC(=O)CCc1n[nH]c(SCc2ccc(OCc3nc(-c4ccccc4)oc3C)cc2)n1` registered a melting point of 114 to 115 °C.

Consider `CN(C)C(=O)Sc1ccc(C(F)(F)F)cc1C(=O)c1ccc(C#N)cc1`, for which the melting point was 159 °C.

`CCCCCCCCCCCC(=O)c1ccc(/C=C/C(=O)O)o1` had a melting point of 122 to 127 °C.

The molecule `CN(C)C(=S)SC(C[N+](=O)[O-])c1ccccc1` (stereo not drawn) gave a melting point of 105 to 106 °C.

`C=C(C)c1cc(-c2ccc(OCCNC(N)=O)cc2)n(-c2ccc(OC)nc2)n1` gave a melting point of 94 to 98 °C.

Turning to `O=C(O)C(=O)CC(=O)c1cccn1Cc1ccccc1-c1ccccc1`, the melting point lay in the range of 150 to 152 °C.

Consider `Cc1ccc(C(=O)NCCCSc2ccncc2)s1`, for which the melting point lay in the range of 86 to 87 °C.

Regarding `O=C(O)c1ccc(N2C(=O)CCC2C(=O)O)c([N+](=O)[O-])c1` (stereo not drawn), the melting point lay in the range of 235 to 237 °C.

Molecule `CCOC(=O)C=Cc1ccc(CCNS(=O)(=O)CCc2ccc(Cl)cc2)cc1` came in with a melting point of 91 to 92 °C.

In the case of `COc1cccc(CC(=O)O)c1OCCCc1cn(-c2ccc(C(F)(F)F)cn2)nc1C(C)(C)C`, the melting point was in the range of 94 to 95 °C.

The molecule `COC(=O)c1ccc(/C=C(\C)c2ccc3c(c2)C(C)(C)CCN3C(C)=O)cc1` gave a melting point of 141 to 142 °C.

As to `Cc1ncn(-c2ccc(CNC(=O)c3nc4n(c(=O)c3OCc3ccccc3)CCOC4(C)C)c(F)c2)n1`, the melting point was 183 to 185 °C.

The molecule `Cc1c(N2CC3(CC3)[C@](C)(N)C2)ccc2c(=O)c(C(=O)O)cn([C@@H]3C[C@@H]3F)c12` had a melting point of 157 to 159 °C.

Molecule `CC1(C(=O)Nc2ccc(C3=NNC(=O)C4CC34)cc2)CC1` (stereo not drawn) showed a melting point of 253 to 255 °C.

`COC(=O)C=Cc1ccc(F)cc1`: the melting point was 43 to 46 °C.

`COC(=O)C1=C(C(=O)OC)c2c(sc3ccccc23)CC1` displayed a melting point of 129 °C.

In turn, `CCOC(=O)CCC(=O)c1ccc(Cl)cc1OCC(O)CNC(C)(C)C` (stereo not drawn) gave a melting point of 70 °C.

For `CCOC(=O)c1cnn(-c2ccc(OC)c(C#N)c2)c1`, the melting point was 192 to 193 °C.

The molecule `O=c1nc(-c2cccc(S(=O)(=O)Cc3ccccc3)n2)sc2ccccc12` returned a melting point of 217 to 218 °C.

Consider `COC(=O)c1cccc(-c2nc(-c3ccc(OC)cc3)cs2)c1`, for which the melting point fell in the range of 108 to 109 °C.

Molecule `O=S(=O)(F)Cc1ccc(F)c(Oc2ccccc2)c1` gave a melting point of 59.5 to 61.5 °C.

Molecule `NC(=O)c1cnn(-c2ccc(Cl)nn2)c1N` registered a melting point of 314 to 317 °C.
